Structures can show the parent of a compound that is named as a salt.
Columns and labels:
[1] = Dissolution rate of micronized drug substance (background statement); assay type: physicochemical; details: agglomerating drug substance
[2] = 25° C., cited from earlier work
[3] = cited from earlier work

CC(C)(C)NC(=O)[C@@H]1C[C@@H]2CCCC[C@@H]2CN1C[C@@H](O)[C@H](Cc1ccccc1)NC(=O)[C@H](CC(N)=O)NC(=O)c1ccc2ccccc2n1 [Micronized saquinavir mesylate, saquinavir mesylate]
dissolution rate (in words) [1]: slow dissolution rate

CC(C)(C)NC(=O)[C@@H]1C[C@@H]2CCCC[C@@H]2CN1C[C@@H](O)[C@H](Cc1ccccc1)NC(=O)[C@H](CC(N)=O)NC(=O)c1ccc2ccccc2n1 [Saquinavir mesylate]
solubility in simulated gastric fluid ([2]; simulated gastric fluid): 80 µg/mL
solubility in simulated intestinal fluid ([2]; simulated intestinal fluid): practically insoluble

CC(C)(C)NC(=O)[C@@H]1C[C@@H]2CCCC[C@@H]2CN1C[C@@H](O)[C@H](Cc1ccccc1)NC(=O)[C@H](CC(N)=O)NC(=O)c1ccc2ccccc2n1 [saquinavir]
Absolute bioavailability (average) ([3]; 8 healthy volunteers, single 600 mg dose (3×200 mg capsules) following a high fat breakfast, CV 73%): 4%
Absolute bioavailability (range) ([3]; 8 healthy volunteers, single 600 mg dose (3×200 mg capsules) following a high fat breakfast): 1-9%
24-hour AUC and Cmax after a higher calorie meal versus a lower calorie meal ([3]; n=6, on average): two times higher
